Assay results taken from patent publication EP1380292A1, “Tiaprid for the treatment of depressions” (Mewicon med. wiss. Beratung GmbH, priority 2002, dated 2004).

Assays:
D2/D3 Dopaminrezeptoren = settings: from the literature (Scatton et al., Eur Psychiatry 2001); cited from earlier work
[1] = test system: Pyramidenzellen im Hippokampus-Schnittpräparat der Ratte; test: Long-term potentiation in the hippocampus slice preparation in vitro; set-up: species or system CD-Ratten
Description: Testmethode 2 (Langzeitpotenzierung im Hippokampus-Schnittpräparat in vitro)
Die Wirkung von Tiaprid auf die Langzeitpotenzierung der Pyramidenzellen im Hippokampus-Schnittpräparat der Ratte wurde bestimmt.
Für die Durchführung dieser Studie wurden 15 erwachsene männliche CD-Ratten verwendet. Die Isolation des Hippokampus erfolgte an äthernarkotisierten und anschließend exsanguinierten Tieren. In Phosphat-gepufferter Salzlösung (NaCl: 124 mM; KCl: 5 mM; CaCl2: 2 mM; MgSO4: 2 mM; NaH2PO4: 1,25 mM; NaHCO3: 26 mM; Glucose: 10 mM; Kontroll-Lösung: künstliche Zerebral-Spinal-Flüssigkeit (ASCF, artificial cerebral spinal fluid); alle von der Firma Roth, Karlsruhe DE) wurde der mittlere Teil des Hippokampus mit Hilfe eines Schnellklebers aufgeblockt und mit einem Vibratom (Rhema Labortechnik) in 400 µm dicke Scheiben geschnitten. Die Aufbewahrung dieses Hippokampusschnittes erfolgte für mindestens 1 Stunde vor Versuchsbeginn (siehe S.J. Schiff, G.G. Somjen "The Effects of Temperature on Synaptic Transmission in Hippocampal Tissue Slices" Brain Research (1985), 345, 279-284) in einer mit Carbogen durchperlten Inkubationskammer.
Das Experiment selbst wurde in einer sog. "Base Unit mit Haas Top" (Firma Medical Systems Corp.) bei 35°C durchgeführt. Der mit Hilfe peristaltischer Pumpen (Infusomat, B. Braun Melsungen AG) superfundierte Hippokampusschnitt lag auf einem Stück Gaze. […]

[2] = test system: frontalem Kortex, Hippokampus, Striatum und Formatio Reticularis abgeleiteten Feldpotentiale; test: Tele-Stereo-EEG: changes of EEG frequencies in freely moving rats after i.p. administration; type: in vivo, Fischer-344 Ratten; settings: for Veränderungen der EEG-Frequenzen: i.p., 40 bis 100 mg/kg, rat, significant at least at P < 5 %-Level
Description: Testverfahren 1 ((Tele-Stereo-EEG)
Die Veränderungen der EEG-Frequenzen nach Gabe von Salzlösung (Kontrolle) bzw. einer Dosis von Tiaprid (40 bis 100 mg/kg Körpergewicht) wurden bestimmt.
Der Stecker diente der Aufnahme eines 4-Kanal-Senders zur telemetrischen Übertragung der aus frontalem Kortex, Hippokampus, Striatum und Formatio Reticularis abgeleiteten Feldpotentiale. Die Signale wurden auf einem Computer System (Software "EEG-Analyse", Betriebsystem OS Science, Laborrechner "LabTeam" der Firma MediSyst, Linden DE) in Echtzeit einer Fast-Fourier-Transformation unterworfen und die Leistungsdichtespektren jeweils über 15 bis 60 Minuten gemittelt. Die Unterteilung der Spektren in 6 verschiedene Frequenzbereiche erlaubte die Erfassung pharmakospezifischer Veränderungen in Bezug auf die jeweils vor der Applikation gemessenen Vorwerte innerhalb dieser Frequenzbänder.
Zum Applikationsprotokoll der Substanzen: Die Substanzen wurden i.p. 45 Minuten nach Beginn der Messungen (Vorwert) injiziert. Fünf Minuten später wurden die Messungen wieder gestartet, mindestens über die nächsten 5 Stunden kontinuierlich analysiert und in 15-minütigen Perioden zusammengefasst. Die Testsubstanz wurde in einer Dosierung von 40 bis 100 mg/kg appliziert. Die experimentelle Serie wurde mit der Injektion von Salzlösung (Kontrolle) begonnen.
Die beobachteten Frequenzänderungen wurden mittels einer Diskriminanzanalyse mit den Ergebnissen mit herkömmlichen antidepressiv wirkenden Arzneimitteln sowie Arzneimitteln für andere Indikationen verglichen. Es wurden folgende Arzneimittel verwendet: 100 mg/kg Tiaprid (Tiapr), 2 mg/kg Paroxetin (Parox), 10 mg/kg Imipramin (Imip), 10 mg/kg Amitryptilin (Amit), 1 mg/kg Nomifensin (Nomi), 0.5 mg/kg Midazolam (Midaz), 60 mg/kg Phenobarbital (Pheno), 60 mg/kg Meprobamat (Meprob), 0.5 mg/kg Chlorpromazin (Chlorp), 0,25 mg/kg Haloperidol (Halop), 1 mg/kg Prothipendyl (Prothi), 10 mg/kg Thioridazin (Thior), 15 mg/kg Carbamazepin (Carba), 75 mg/kg Valproinsäure (Valpr), 6 mg/kg Phenytoin (Pheny). Des weiteren wurden geprüft: 1,3 Vol.-% Halothan (Haloth), 100 mg/kg Propofol (Propo), 1,0 Vol.-% Isofluran (Isofl), 4,5 Vol.-% Desfluran (Desfl), 1,8 Vol.-% Sevofluran (Sevofl) und 1,7 Vol.-% Enfluran (Enfl). Die Ergebnisse sind in Fig. 2 dargestellt.

CCN(CC)CCNC(=O)c1cc(S(C)(=O)=O)ccc1OC [Tiaprid, N-2-(Diethylaminoethyl)-5-methylsulfonyl-2-methoxybenzamide]
Rezeptor-Bindungsprofil (D2/D3 Dopaminrezeptoren): selektive Blockade von D2/D3 Dopaminrezeptoren
Amplitude der Populationsspikes ([1]; Tiaprid added to superfusion fluid, 2 concentrations, rat hippocampus slice, 35°C, N = 6 slices): konzentrationsabhängig zu einer deutlichen Abnahme der Amplitude der Populationsspikes
Langzeitpotenzierung ([1]; rat hippocampus slice in vitro, tetanic stimulus): Unterdrückung der "Langzeitpotenzierung"
Muster der EEG-Frequenzänderungen ("Fingerprint", Diskriminanzanalyse) ([2]; discriminant analysis against antidepressants and drugs for other indications, 100 mg/kg Tiaprid): korrelieren in signifikanter Weise mit den Mustern, die für andere antidepressive Arzneimittel kennzeichnend sind
Veränderungen der EEG-Frequenzen ([2]; first hour after administration): Abfall bei allen Frequenzen
Veränderungen der elektrischen Gehirnaktivität ([2]; i.p. single dose, compared with saline (0,9 % NaCl-Lösung), all brain areas, all frequencies): statistisch signifikantes Niveau im Vergleich zu Salzlösung
Veränderungen der EEG-Frequenzen ([2]; next (second) hour after administration): im Hippokampus und Striatum Theta- und Alpha2-Wellen nicht mehr so stark vermindert
